According to US9255062B2, “Fatty acid derivatives for oral administration endowed with high palatability” (priority 2008, dated 2016):

Columns and labels:
[1] = tested on: Caco-2 cells; assay: Ussing chamber, short circuit current in Caco-2 monolayer, baseline conditions; type: cell-based, human; settings: Caco-2 in Ussing chamber; for decrease in short circuit current (ΔIsc), maximum effect: final concentration 10 mM; for decrease in short circuit current (ΔIsc), maximum effect / time of maximum decrease in Isc after addition: luminal (mucosal) side; for effect on tissue conductance: luminal side, measure of tissue integrity
Experimental: The experiments were carried out using a human intestinal cell line called Caco-2, obtained from the American Type Culture Collection (ATCC, Rockville, USA). These cells, 15 days after confluence, form a monolayer of enterocytes with morphological and functional features identical to those of ileal enterocytes at the apex of the villus (Berni Canani R, et al. Gastroenterology 2003; 124:368-76). Cells were grown in a culture medium consisting in Dulbecco's Modified Eagle's Medium (DMEM) containing glucose (4.5 g/L), 10% Fetal Calf Serum (FCS), 1% non-essential amino acids, 1% L-glutamine, 1% sodium pyruvate, streptomycin ([…]), penicillin ([…]), and were incubated at 37° C. in an atmosphere of 5% CO2 and […]. The culture medium was replaced every day.
For all the experiments were used cells at the 30th-40th pass, 2×10^6 cells per filter, grown on polycarbonate supports (pore size 0.4 μm, diameter 24.5 mm) for 15 days post-confluence. Each support containing the cells was mounted in an Ussing chamber (World Precision Instruments, Sarasota, Fla.) as a cellular monolayer between the luminal and the serosal compartments (Berni Canani R, et al. J. Pediatr. Gastroenterol. Nutr. 28: 315-320, 1999). The Ussing chamber system, allows through the measurement of defined electrical parameters, the study of transepithelial transport of water and electrolytes. These parameters consist in: 1) transepithelial potential difference (PD) and short circuit current (Isc), an expression of the transepithelial passage of ions; 2) resistance (RT) and, ionic conductance (G), a measure of tissue integrity. An absorptive-type stimulus on transepithelial transport induces a decrease in Isc, whereas a secretory-type stimulus induces an increase in Isc. The Isc is expressed in microamperes per square centimeter (μA/cm^2), conductance in millisiemens per square centimeter (mS/cm^2) and the transepithelial potential difference in millivolts (mV). Measurement of these electrical parameters is made possible by the presence of silver electrodes, placed proximally to both sides (serosal and luminal) of the cellular monolayer and connected with an automatic voltage system equipped with software for data acquisition and processing (DVC 1000, World Precision Instruments, Sarasota, Fla., USA). Each compartment contained 10 ml of Ringer's solution with the following composition (in mmol/L): NaCl, 114; KCl, 5; NaH2PO4, 0.3; Na2HPO4, 1.65; CaCl2, 1.25; MgCl2, 1.1; NaHCO3, 25; glucose, 10. The incubation liquid was circulated through the chamber by means of the flow of a gaseous mixture composed of 95% O2 and 5% CO2 and was maintained at a temperature of 37° C. by means of a thermostat (Berni Canani R. et al. J. Pediatr. Gastroenterol. Nutr. 28: 315-320, 1999). The study of changes in electrical parameters reflecting changes in transepithelial transport of water and electrolytes was carried out in baseline conditions and after administration of the compounds on the luminal side of the monolayer of Caco-2 cells.

[2] = tested on: Swiss mice; settings: oral administration
[3] = in vivo; settings: both, Swiss, mouse, po

SMILES	decrease in short circuit current (ΔIsc), maximum effect [1] [μA/cm^2]	time of maximum decrease in Isc after addition [1]	effect on tissue conductance [1]	LD50 expressed as equivalent of butyric acid [2] [g]	LD50 [3] [mg/kg]
CCCC(=O)NC(Cc1ccccc1)C(N)=O (stereo not shown) [Compound 1, N-(1-carbamoyl-2-phenyl-ethyl)butyramide]	−0.9±0.3	approximately 40 minutes	without interfering with the stability of tissue conductance	8.8	23800
CCCC(=O)NC(=O)C(Cc1ccccc1)NC(=O)CCC (stereo not shown) [Compound 2, N-(1-butyroyl-carbamoyl-2-phenyl-ethyl)butyramide]	−0.4±0.1	40 to 45 min	without interfering with the stability of tissue conductance	8.8	16300
CCCC1=NC(=O)C(Cc2ccccc2)N1 (stereo not shown) [Compound 3, 5-benzyl-2-propyl-1H-imidazol-4(5H)-one]	−1.1±0.1	50 min	absence of any significant changes in tissue conductance	8.8	21600
CCCC(=O)O [butyric acid, reference compound]					8800
CCCC(=O)[O-].[Na+] [sodium butyrate, reference compound]	−0.8±0.2	approximately 35 minutes	did not alter tissue conductance		
